Values quoted from earlier work as cited in publication PMC5062570 (Nature Communications, 2016).

Test system: retina
Settings: mouse, in vivo; cited from earlier work

Structure (SMILES): C[C@@H](NC(=O)c1cc(C(=O)N[C@@H](Cc2ccccc2)[C@H](O)CNC2CC2)cc(N(C)S(C)(=O)=O)c1)c1ccccc1 [BACE1 inhibitor IV]
- Ocular pathology in wild-type mice: could also be induced in vivo in wild-type mice
